Assays:
[1] = target: T1, recombinant human TRPM8 stably expressed in HEK293 cells (hTRPM8) (Homo sapiens, UniProt Q7Z2W7); assay: Ca2+ microfluorimetry screen for agonist/antagonist activity in hTRPM8-HEK293 cells; type: cell-based
T1 construct: expressed in transfected cells
Description: We first evaluated the series of compounds 20–29 synthesized using the Passerini‐Adamantane reaction. All compounds were screened for channel agonism and antagonism on recombinant human TRPM8 stably expressed in HEK293 cells (hTRPM8‐HEK293) with Ca^2+ microfluorimetry. […] Compound‐induced TRPM8‐mediated Ca^2+ influx was confirmed using untransfected HEK293 cells and the channel blocker AMTB. […] The concentration of compounds to reach half of channel activation (EC50) or to block half‐channel activity evoked by WS‐12 (IC50) are reported in Table 1, along with the percentage of maximal activation or blockade (Efficacy).
Assays were conducted to assess the channel activity of the recombinant hTRPM8 stably expressed in HEK‐293 cells. HEK‐293‐hTRPM8 cells were cultured in a monolayer using a DMEM GlutaMax with 10% FBS and 1% P/S and maintained at 37 °C in 5% CO2. For experiments, cells were prepared and seeded at the indicated densities. To evaluate compound effectiveness against hTRPM8 activity, microfluorometry‐based calcium flux assays were performed using Fluo‐4 NW Ca^2+ dye and fluorescence detection. HEK cell lines expressing hTRPM8 were seeded in 96‐well plates and incubated with the dye‐loading solution. Ion channel activity was measured using a plate reader, and fluorescence intensity changes were recorded following the addition of vehicle, compound at varying concentrations, and antagonist (10 μM AMTB). Data analysis included calculating the Z‐factor for each assay and normalizing compound effects to […]. Data were analyzed to determine the concentration exerting half‐maximal inhibition (IC50) or activation (EC50) of agonist‐induced calcium elevation, using GRAPHPAD PRISM8® software (Boston, MA, USA). All experiments were conducted in triplicate, and results are presented as mean ± standard deviation.

[2] = tested on: capsaicin‐induced excitability in murine nociceptors; assay: Multielectrode array (MEA): capsaicin-induced firing in nociceptors; type: cell-based; conditions: 1 μM compound, 0.5 μM capsaicin, P2/P1
Protocol: Additionally, we investigated the effect of compound 23 on capsaicin and AITC‐induced excitability in murine nociceptors. Employing an IC50 value of 1 μM for TRPV1 and 5 μM for TRPA1 of firing inhibition by compound 23 (Fig. 4), we interrogated its ability to modulate neuronal excitability. As for TRPM8, our experimental design involved a protocol of dual agonist pulses interspersed with a washing pulse to minimize agonist‐induced channel desensitization. Compound 23 was administered 1 min prior to and during the second agonist pulse.
Primary cultures of neonatal dorsal root ganglia were used for multielectrode array (MEA) and patch‐clamp experiments following established methodologies previously described. Neonatal dorsal root ganglia (DRGs) were obtained from Wistar rats (3–5 days old) and were isolated and digested with 0.25% (w/v) collagenase (type IA) in DMEM GlutaMax with 1% (v/v) penicillin/streptomycin (P/S) solution for 1 h at 37 °C in a 5% CO2 Thermo Scientific incubator. Following digestion, DRGs were mechanically dissociated and passed through a 100 μm cell strainer to obtain single‐cell suspensions. Suspensions were washed with DMEM GlutaMax with 10% (v/v) fetal bovine serum (FBS) and 1% (v/v) penicillin/streptomycin (P/S). Cells were then seeded in microelectrode array chambers coated with poly‐L‐lysine (8.3 μg·mL^−1) and laminin (5 μg·mL^−1). […]

T1 sequence (Q7Z2W7 whole entry): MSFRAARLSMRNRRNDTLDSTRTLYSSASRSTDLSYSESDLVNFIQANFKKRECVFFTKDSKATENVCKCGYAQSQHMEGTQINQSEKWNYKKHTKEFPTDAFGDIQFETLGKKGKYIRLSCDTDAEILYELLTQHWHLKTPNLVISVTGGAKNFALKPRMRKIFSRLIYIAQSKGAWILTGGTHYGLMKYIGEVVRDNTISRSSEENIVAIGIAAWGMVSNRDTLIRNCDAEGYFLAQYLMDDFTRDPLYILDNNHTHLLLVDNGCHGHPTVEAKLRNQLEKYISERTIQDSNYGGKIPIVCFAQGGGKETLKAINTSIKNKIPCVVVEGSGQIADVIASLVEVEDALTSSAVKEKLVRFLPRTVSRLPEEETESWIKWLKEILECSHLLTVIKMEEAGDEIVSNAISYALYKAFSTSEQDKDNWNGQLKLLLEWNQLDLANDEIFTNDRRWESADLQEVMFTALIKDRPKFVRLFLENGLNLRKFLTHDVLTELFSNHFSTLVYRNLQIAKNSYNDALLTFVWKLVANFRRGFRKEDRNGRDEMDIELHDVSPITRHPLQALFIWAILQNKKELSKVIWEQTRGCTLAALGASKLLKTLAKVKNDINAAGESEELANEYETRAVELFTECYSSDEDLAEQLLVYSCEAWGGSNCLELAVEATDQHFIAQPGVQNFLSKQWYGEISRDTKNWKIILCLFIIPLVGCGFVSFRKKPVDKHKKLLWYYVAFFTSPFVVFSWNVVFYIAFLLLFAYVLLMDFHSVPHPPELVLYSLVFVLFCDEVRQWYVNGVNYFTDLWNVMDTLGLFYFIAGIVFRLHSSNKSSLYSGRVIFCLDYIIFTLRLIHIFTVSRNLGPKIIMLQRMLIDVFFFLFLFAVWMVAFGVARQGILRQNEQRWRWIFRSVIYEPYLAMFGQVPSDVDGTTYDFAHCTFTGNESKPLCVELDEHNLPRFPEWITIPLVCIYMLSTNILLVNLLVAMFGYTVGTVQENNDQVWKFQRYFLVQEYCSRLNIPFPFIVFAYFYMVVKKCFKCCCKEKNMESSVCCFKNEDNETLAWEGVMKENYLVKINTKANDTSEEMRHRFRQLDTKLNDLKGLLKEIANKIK

Activity (agonist/antagonist) ([1]; hTRPM8-HEK293, agonism = compound-induced Ca2+ influx, antagonism = modulation of WS-12-induced Ca2+ influx): Antagonist | IC50 ([1]; hTRPM8-HEK293, block of half channel activity evoked by WS-12, mean ± SD, N = 3, read-out: IC50): 200 nM | Hill coefficient ([1]; hTRPM8-HEK293 Ca2+ microfluorimetry dose-response, mean ± SD): 0.5 ± 0.9
Structure (SMILES): O=C(COC(=O)c1ccccc1-c1ccccc1)NC12CC3CC(CC(C3)C1)C2 [Compound 23, 2‐((3S,5S,7S)‐adamantan‐1‐ylamino)‐2‐oxoethyl [1,1′‐biphenyl]‐2‐carboxylate]
attenuation of capsaicin‐induced firing [2]: 30%

From PMC12220852, “An adamantane‐based ligand as a novel chemical tool for thermosensory TRPM8 channel therapeutic modulation” (The Febs Journal, 2025)
